Assay results reported in patent publication US20160030426A1, “HETEROARYL COMPOUNDS AND USES THEREOF” (CELGENE AVILOMICS RESEARCH, INC., priority 2013, published 2016).

Molecular target: T1, EGFR-WT (Homo sapiens, UniProt P00533)
T1 construct: purchased Invitrogen PV3872
Test: Omnia assay for potency assessment against EGFR-WT
Format: biochemical
Conditions: 30 min pre-incubation at 27° C., read-out: EGFR Inhibition
Method: Omnia Assay Protocol for Potency Assessment Against BTK and EGFR
The mechanics of the assay platform are best described by the vendor (Invitrogen, Carlsbad, Calif.).
10× stocks of EGFR-WT (PV3872) from Invitrogen, 1.13×ATP (Invitrogen catalog number AS001A) and appropriate Tyr-Sox conjugated peptide substrates (Invitrogen catalog number KCZ1001) were prepared in 1× kinase reaction buffer consisting of 20 mM Tris, pH 7.5, 5 mM MgCl2, 1 mM EGTA, 5 mM β-glycerophosphate, 5% glycerol (10× stock, Invitrogen catalog number KB002A) and 0.2 mM DTT (Invitrogen catalog number DS001A). 5 μL of each enzyme were pre-incubated in a Corning (#3574) 384-well, white, non-binding surface microtiter plate (Corning, N.Y.) for 30 min. at 27° C. with a 0.5 μL volume of 50% DMSO and serially diluted compounds prepared in 50% DMSO. Kinase reactions were started with the addition of 45 μL of the ATP/Tyr-Sox peptide substrate mix and monitored every 30-90 seconds for 60 minutes at λex360/λem485 in a Synergy^4 plate reader from BioTek (Winooski, Vt.). […] Initial velocity (0 minutes to ˜30 minutes) from each reaction was determined from the slope of a plot of relative fluorescence units vs time (minutes) and then plotted against inhibitor concentration to estimate IC50 from log[Inhibitor] vs Response, Variable Slope model in GraphPad Prism from GraphPad Software (San Diego, Calif.).

T1 sequence (P00533 668-1210 limits assumed): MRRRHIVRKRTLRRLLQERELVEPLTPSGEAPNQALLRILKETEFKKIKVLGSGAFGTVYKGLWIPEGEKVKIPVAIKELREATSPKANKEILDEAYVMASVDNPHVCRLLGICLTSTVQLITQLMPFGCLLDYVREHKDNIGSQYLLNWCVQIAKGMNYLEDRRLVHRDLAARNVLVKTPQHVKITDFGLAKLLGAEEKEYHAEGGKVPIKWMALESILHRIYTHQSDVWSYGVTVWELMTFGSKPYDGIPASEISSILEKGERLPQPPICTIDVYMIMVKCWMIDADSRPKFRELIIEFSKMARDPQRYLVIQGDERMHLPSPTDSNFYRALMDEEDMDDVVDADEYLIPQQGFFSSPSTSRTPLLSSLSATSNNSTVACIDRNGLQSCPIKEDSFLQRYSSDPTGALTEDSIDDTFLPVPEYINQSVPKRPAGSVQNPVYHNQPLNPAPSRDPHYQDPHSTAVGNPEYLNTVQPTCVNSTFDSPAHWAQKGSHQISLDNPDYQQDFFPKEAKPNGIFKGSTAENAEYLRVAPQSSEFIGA

IC50: 10 to 100 nM
SMILES: [2H]C([2H])([2H])OC([2H])([2H])C([2H])([2H])Oc1ccc(Nc2ncc(F)c(Nc3cccc(NC(=O)C=C)c3)n2)cc1 [II-7]
